The source of these data is ChEMBL document CHEMBL5154870, “Discovery of novel glutaminase 1 allosteric inhibitor with 4-piperidinamine linker and aromatic heterocycles” (Eur J Med Chem, 2022).

The target in series [1] is T1, Glutaminase kidney isoform, mitochondrial (Homo sapiens) (UniProt O94925).
T1 sequence (whole entry): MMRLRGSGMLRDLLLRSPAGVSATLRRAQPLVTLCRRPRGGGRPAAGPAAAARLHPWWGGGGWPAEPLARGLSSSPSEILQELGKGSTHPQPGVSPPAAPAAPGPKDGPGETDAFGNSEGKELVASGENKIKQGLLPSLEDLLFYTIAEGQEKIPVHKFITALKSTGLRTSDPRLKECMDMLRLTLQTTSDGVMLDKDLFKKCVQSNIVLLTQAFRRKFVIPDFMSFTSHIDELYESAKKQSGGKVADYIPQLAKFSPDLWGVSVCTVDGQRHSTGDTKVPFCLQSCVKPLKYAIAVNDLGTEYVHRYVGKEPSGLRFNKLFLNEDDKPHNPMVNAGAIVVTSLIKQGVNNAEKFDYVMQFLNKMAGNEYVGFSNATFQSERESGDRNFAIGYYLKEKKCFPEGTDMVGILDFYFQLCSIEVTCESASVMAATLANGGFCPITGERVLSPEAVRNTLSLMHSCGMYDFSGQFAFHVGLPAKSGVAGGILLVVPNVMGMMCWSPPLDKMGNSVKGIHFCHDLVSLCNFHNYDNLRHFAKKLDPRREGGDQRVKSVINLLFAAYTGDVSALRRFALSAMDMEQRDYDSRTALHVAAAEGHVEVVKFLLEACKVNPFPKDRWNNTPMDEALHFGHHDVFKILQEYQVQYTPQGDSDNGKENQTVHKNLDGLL
The note with it: HCT-116, filed as negative allosteric modulator, dose 100-300 nM, time 12.0 hrs.

Series [2] concerns HCT-116. Briefly: Antitumor activity against human HCT-116 cells xenografted in BALB/c SPF mouse assessed as tumor growth inhibition at 100 mg/kg, ip administered BID for 21 days. The class given is functional. The following applies: Mus musculus, HCT-116, 504 h, time 21 day, read-out: TGI.
Series [3] in a line: Metabolic stability in human plasma assessed as parent compound remaining at 1 uM measured after 2 hrs by LC-MS/MS analysis. The class given is ADME, cell-free. The note with it: read-out: Stability.
The target of series [4] is T1, Glutaminase kidney isoform, mitochondrial (Homo sapiens). The following applies: HCT-116, filed as negative allosteric modulator, dose 100-300 nM, time 12.0 hrs. The source holds these as a separate data set.
A short description of series [5]: Apparent volume of distribution in Sprague-Dawley rat at 10 mg/kg, ip measured for 72 hrs by LC-MS/MS analysis. In kind it is ADME, organism-based. The note with it: in vivo.
Series [6] can be described thus: Metabolic stability in human liver microsomes assessed as intrinsic clearance at 10 uM by LC-MS/MS analysis. In kind it is ADME, Microsome. The following applies: read-out: CLH.
Series [7] in a line: Toxicity in nude mouse xenografted with human HCT-116 cells assessed as heart damage by measuring edema and atrophy at 50 to 100 mg/kg, ip measured after 21 days by H and E staining based analysis. In kind it is organism-based. The note with it: in vivo, 504 h, dose 50-100 mg/kg, time 21 day.
Series [8] concerns HCT-116. Briefly: Induction of apoptosis in human HCT-116 cells assessed as late apoptotic cells at 50 nM measured after 24 hrs by Annexin V-FITC/PI staining based flow cytometry method (reference value: 3.55 %). In kind it is functional.
Series [9] has as its system HCT-116. Put plainly: Induction of apoptosis in human HCT-116 cells assessed as necrotic cells at 200 nM measured after 24 hrs by Annexin V-FITC/PI staining based flow cytometry method (reference value: 0.48 %). The class given is functional.
The target of series [10] is T1, Glutaminase kidney isoform, mitochondrial (Homo sapiens). The following applies: HCT-116, filed as negative allosteric modulator, dose 100-300 nM, time 12.0 hrs. The source holds these as a separate data set.
In series [11] the test system is HCT-116. Put plainly: Antiproliferative activity against human HCT-116 cells overexpressing GLS1 assessed as inhibition of cell proliferation measured after 72 hrs by MTT assay. In kind it is functional, cell-based. The note with it: HCT-116, 72 h.
Series [12] can be described thus: AUC (0 to t) in Sprague-Dawley rat at 5 mg/kg, iv measured for 72 hrs by LC-MS/MS analysis. Further details: dose 5 mg/kg, time 72 hrs, route iv. In kind it is ADME, organism-based. The note with it: in vivo.
Series [13] has as its system HCT-116. Put plainly: Antitumor activity against human HCT-116 cells xenografted in BALB/c SPF mouse assessed as tumor growth inhibition at 50 mg/kg, ip administered BID for 21 days. The class given is functional. The following applies: HCT-116, 504 h, time 21 day, read-out: TGI.
Series [14] in a line: Metabolic stability in human liver microsomes assessed as half life at 10 uM by LC-MS/MS analysis. In kind it is ADME, Microsome. The note with it: liver microsomes.
For series [15], the system named is HCT-116. Put plainly: Induction of apoptosis in human HCT-116 cells assessed as late apoptotic cells at 200 nM measured after 24 hrs by Annexin V-FITC/PI staining based flow cytometry method (reference value: 3.55 %). In kind it is functional.
The nature of series [16]: Toxicity in BALB/c SPF mouse xenografted with human HCT-116 cells assessed as body weight loss at 50 to 100 mg/kg, ip administered BID for 21 days. The class given is organism-based. The following applies: in vivo, 504 h, dose 50-100 mg/kg, time 21 day.
Series [17] concerns the target T1, Glutaminase kidney isoform, mitochondrial (Homo sapiens). The note with it: HCT-116, filed as negative allosteric modulator, dose 100-300 nM, time 12.0 hrs. This is another data set of the same source.

Active and inactive are the calls of the source. The rule behind the calls is not given here.

On to `O=C(Cc1ccccc1)Nc1nnc(NC2CCN(c3nnc(NC(=O)c4nccn4Cc4ccc(C(F)(F)F)cc4)s3)CC2)s1`, for which the inhibition entry in series [1], in [4], in series [10] and in series [17] was “Active” throughout. The inhibition in vivo at 100 mg/kg with HCT-116 [2] amounted to 47.5%. Moreover, the remaining at 2 h, 1 µM in series [3] is 96%. In [5], the Vd/F worked out at 36.1 L/kg. Further, the microsomal CLint at 10 µM in series [6] amounted to 8.95 µL/min/mg. Besides, the Activity entry in [7] is on record as “Non-Toxic”; in the series on HCT-116 [8], 5.4%; in the series with HCT-116 [9] it was 0.02%; in the series on HCT-116 [15], 13.2%; in series [16], “Non-Toxic”. The IC50 in the series with HCT-116 [11] is 51 nM. In addition, in series [12], the area under the curve AUC(0-t) at 72 h was found to be 6930 ng·h/mL. In addition, the inhibition in vivo at 50 mg/kg with HCT-116 [13] is 35.5%. Also, the half-life at 10 µM in series [14] turned out to be 3.24 h.
